Among the data in ChEMBL document CHEMBL1131782, “Synthesis, biological activity, and absolute stereochemical assignment of NPS 1392: a potent and stereoselective NMDA receptor antagonist” (Bioorg Med Chem Lett, 1999) are IC50 values, retold here.

Assay [1] deals with Glutamate NMDA receptor. As to the kind of experiment: Potency towards NMDA receptor measured as inhibition of (+)-[3-3H]MK-801 binding from synaptic plasma membrane obtained from rat cortex.
Assay [2] addresses Glutamate NMDA receptor. The assay is described as follows: Functional NMDA receptor antagonism expressed as inhibition of NMDA/glycine induced increase in cytosolic calcium in cultured rat cerebellar granule cells.

With `C[C@@H](CN)C(c1cccc(F)c1)c1cccc(F)c1`, the IC50 in assay [1] amounted to 141 nM; in assay [2], 75 nM.

As for `NCCC(c1cccc(F)c1)c1cccc(F)c1`, the IC50 came to 230 nM in assay [1] and 63 nM in assay [2].

Regarding `C[C@H](CN)C(c1cccc(F)c1)c1cccc(F)c1`, the figures for the concentration for half-maximal inhibition (IC50) in assay [1] and in assay [2] were 2000 nM and 384 nM, respectively.
